Read-outs that look alike come from different tables or passages of the source. Residues, ends and D or L forms follow the SMILES beside them. No end group written: not given here.
What was measured:
[1] = test system: vesicular stomatitis virus; type: cell-based
[2] = test system: intracellular virus protein synthesis; type: cell-based, Sindbis virus; conditions: peptide 0.1 mg/ml
[3] = test system: uninfected cells; conditions: tissue culture cells
[4] = test system: Sindbis virus
[5] = test system: A/WSN strain of influenza virus; type: cell-based
[6] = test system: viral nucleoprotein and matrix protein; type: cell-based, influenza virus
[7] = test system: viral ribonucleoprotein particles (RNP)
[8] = test system: Semliki Forest virus; conditions: 4 h, 1 mg/ml

viral ribonucleoprotein particles (RNP), sequence (P15682 whole entry): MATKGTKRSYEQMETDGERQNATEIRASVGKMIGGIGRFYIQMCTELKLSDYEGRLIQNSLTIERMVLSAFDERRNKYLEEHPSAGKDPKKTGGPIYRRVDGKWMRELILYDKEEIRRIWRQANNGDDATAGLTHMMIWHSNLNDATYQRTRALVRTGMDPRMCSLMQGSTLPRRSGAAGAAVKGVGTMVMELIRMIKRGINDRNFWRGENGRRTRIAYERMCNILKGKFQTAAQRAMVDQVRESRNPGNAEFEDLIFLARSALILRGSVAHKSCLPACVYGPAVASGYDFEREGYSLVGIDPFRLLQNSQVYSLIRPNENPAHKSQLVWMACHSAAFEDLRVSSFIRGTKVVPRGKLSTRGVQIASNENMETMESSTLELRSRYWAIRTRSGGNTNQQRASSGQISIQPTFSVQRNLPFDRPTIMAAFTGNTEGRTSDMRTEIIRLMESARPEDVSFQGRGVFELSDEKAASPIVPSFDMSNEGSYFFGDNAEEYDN

CCCCCCCC(=O)N[C@@H](CC(C)C)C(=O)N[C@H](C(=O)N1CCC[C@H]1C(=O)N[C@@H](Cc1ccc(O)cc1)C(=O)N[C@@H](C)C(=O)N[C@@H](CC(C)C)C(=O)N[C@@H](C)C(N)=O)[C@@H](C)O [OCTANOYLATED HEPTAPEPTIDE L-T-P-Y-A-L-A, L-T-P-Y-A-L-A] (HELM PEPTIDE1{[CCCCCCCC(=O)[*:2]].L.T.P.Y.A.L.A.[am]}$$$$V2.0)
effect on cells infected with vesicular stomatitis virus [1]: no effect | inhibition of vesicular stomatitis virus formation and secretion [1]: no inhibition | inhibition of intracellular virus protein synthesis [2]: no inhibition | effect on uninfected cells [3]: no effect | increase of inhibitory potency by addition of an octanoyl group [4]: 10 fold | effect on cells infected with influenza [5]: no effect

N-G-S-L-Q-C-R-I (NGSLQCRI) [8 amino acid peptide lacking the two carboxy-terminal amino acids of HA2 (213-222)]
inhibition of influenza virus release ([5]; specificity tests, E2 (391-399) at 1 mg/ml in FIG. 2): non-inhibitory

N-G-S-L-Q-C-R-I-C-I-NH2 (NGSLQCRICI-NH2; cysteine pairing not given here) [HA2 (213-222), residues 213-222 at the carboxy terminus of the HA2 of A/WSN strain of influenza virus]
changes in synthesis of intracellular viral nucleoprotein and matrix protein ([6]; increasing amounts of peptide): No significant changes | Incorporation (% of control) ([6]; peptide level 20 μg/ml): 110 +/-12 % of control | Incorporation (% of control) ([6]; peptide level 50 μg/ml): 108 +/-12 % of control | Incorporation (% of control) ([6]; peptide level 100 μg/ml): 94 +/-9 % of control | Incorporation (% of control) ([6]; peptide level 200 μg/ml): 83 % of control | Incorporation (% of control) ([6]; peptide level 250 μg/ml): 97 % of control | block of release of vesicular stomatitis virus ([1]; 200 μg/ml): 15% | nucleoprotein in the RNP peak, % of the total cytoplasmic nucleoprotein [7]: 19% | block in the release of Sindbis virus ([4]; 200 μg/ml): no block | half-maximal dose, inhibition of virus particle secretion [5]: less than 50 μg/ml | inhibition of release of influenza virus particles ([5]; 150 μg/ml peptide (RNP test)): 70% | inhibition of release of influenza virus ([5]; 200 μg/ml): 90% | block of virus particle secretion ([5]; 250 μg/ml (225 μM)): > 90% | IC50 ([5]; read-out: half-maximal dose, inhibition of virus particle secretion): < 45 µM

LTPYAL-NH2 [HEXAPEPTIDE L-T-P-Y-A-L, L-T-P-Y-A-L]
Degree of Inhibition [8]: 36%

From patent US5104854A (priority 1991, dated 1992)
